According to patent publication US20090004261A1, “PHARMACEUTICAL COMPOSITION FOR ORAL ADMINISTRATION OF A PYRAZOLE-3-CARBOXAMIDE DERIVATIVE” (Sanofi-aventis, priority 2003, published 2009):
Values after ≈ are worked out from the molar mass of the structure shown.

How the values were obtained:
[1] = Membrane permeability coefficient on the CaCO2 cell model; type: in vitro ADME; conditions: human, Caco-2
Protocol: (§1) These compounds are molecules that are very sparingly soluble in water, respectively: 0.1 μg/ml and 1 μg/l at pH=6.5. Furthermore, these compounds have high membrane permeability coefficients: respectively, 78×10^−7 cm/s and 96×10^−7 cm/s on the CaCO2 cell model, as described by M. C. Gres et al. in Pharmaceutical Research, […], 15(5), 726-7333.

[2] = Solubility in water; type: physicochemical; conditions: pH=6.5
Protocol: as §1

Papp [1] [×10⁻⁶ cm/s]	solubility [2] [µg/mL]	Structure (SMILES)
9.6		Cc1c(C(=O)NN2CCCCC2)nn(-c2ccc(Cl)cc2Cl)c1-c1ccc(Cl)cc1 [Compound B, N-Piperidino-5-(4-chlorophenyl)-1-(2,4-dichlorophenyl)-4-methylpyrazole-3-carboxamide, reference compound]
7.8	0.1 (≈ 0.191 µM)	CCc1c(C(=O)NN2CCCCC2)nn(-c2ccc(Cl)cc2Cl)c1-c1ccc(Br)cc1 [Compound A, N-Piperidino-5-(4-bromophenyl)-1-(2,4-dichlorophenyl)-4-ethylpyrazole-3-carboxamide]
